Data reported in patent US20230286956A1 (DUKSUNG WOMEN'S UNIVERSITY INDUSTRY-ACADEMIC COOPERATION …, priority 2020, published 2023).

Each compound was assayed on wild-type red mold strain GZ3639 (assay: Inhibition of spore germination / reactive oxygen species generation through NOX enzyme inhibition in red mold). Settings: 24 h, read-out: IC50 (µM), compound concentration at which the spore germination inhibition rate was 50%.
Type: cell-based
Protocol: When NADPH oxidase (NOX), which is involved in the generation of reactive oxygen species in red mold, is inhibited, normal mycelial growth is inhibited, abnormal form of monocyclic conidia is formed, and germination is inhibited. The abnormal phenotype caused by the reduction of reactive oxygen species in red mold can be easily observed under an optical microscope. Through this, the ability to inhibit generation of reactive oxygen species through NOX inhibition was evaluated.
Specifically, for the evaluation of compound activity, 0.1 mM of the compound was added to a minimum medium (MM20) spore suspension diluted to ⅕. Spores ([…]) of wild-type red mold strain GZ3639 were inoculated into the medium and cultured at 25° C. for 24 h, followed by microscopic observation. Compounds having a germination inhibition rate and microcycle conidiation to be 50% or more of those in normal germination were selected, and their activities were evaluated at concentrations of 50 µM, 25 µM, and 10 µM. At this time, the activity of substances having a germination inhibition rate of 95% at 10 µM was further evaluated at concentrations of 5 µM, 1 µM, 0.5 µM, and 0.1 µM. Based on the result of this evaluation, the compound concentration (inhibitory concentration 50%, IC50) at which the spore germination inhibition rate was 50% was determined.
For `CN1C(=[Se])N(c2ccc(Cl)cc2)C(=O)/C1=C\c1cc(O)cc(O)c1` [Compound 38, 3-(4-chlorophenyl)-5-(3,5-dihydroxybenzylidene)-1-methyl-2-selenoxoimidazolidine-4-on], the IC50 was 56 µM.
`CN1C(=[Se])N(c2ccc(Cl)cc2)C(=O)/C1=C\c1cccnc1` [Compound 39, 3-(4-chlorophenyl)-1-methyl-5-(pyridine-3-ylmethylene)-2-selenoxoimidazolidine-4-on] gave an IC50 of 27 µM.
`CN1C(=[Se])N(c2cccc(Cl)c2)C(=O)/C1=C\c1cccc(O)c1O` [Compound 40, 3-(3-chlorophenyl)-5-(2,3-dihydroxybenzylidene)-1-methyl-2-selenoxoimidazolidine-4-on] gave an IC50 of 42 µM.
In the case of `CN1C(=[Se])N(CCc2ccccc2)C(=O)/C1=C\c1ccc(O)cc1O` [Compound 41, 5-(2,4-dihydroxybenzylidene)-1-methyl-3-phenethyl-2-selenoxoimidazolidine-4-on], the IC50 is reported as 9.8 µM.
In the case of `CN1C(=[Se])N(CCc2ccccc2)C(=O)/C1=C\c1ccc(N(C)C)cc1` [Compound 43, 5-(4-(dimethylamino)benzylidene)-1-methyl-3-phenethyl-2-selenoxoimidazolidine-4-on], the IC50 is reported as 23 µM.
With `CN1C(=[Se])N(CCc2ccccc2)C(=O)/C1=C\c1ccc(N2CCOCC2)cc1` [Compound 52, 1-methyl-5-(4-morpholinobenzylidene)-3-phenethyl-2-selenoxoimidazolidine-4-on] the IC50 was 3.5 µM.
For `CN1C(=[Se])N(C2CCCCC2)C(=O)/C1=C\c1ccc(O)cc1O` [Compound 55, 3-cyclohexyl-5-(2,4-dihydroxybenzylidene)-1-methyl-2-selenoxoimidazolidine-4-on], the IC50 was 1 µM.
Work on `CN1C(=[Se])N(C2CCCCC2)C(=O)/C1=C\c1cccc(O)c1O` [Compound 56, 3-cyclohexyl-5-(2,3-dihydroxybenzylidene)-1-methyl-2-selenoxoimidazolidine-4-on] yielded an IC50 of 18 µM.
For `CN1C(=[Se])N(C2CCCCC2)C(=O)/C1=C\c1ccc(N(C)C)cc1` [Compound 57], the IC50 was 46 µM.
Compound `CN1C(=[Se])N(C2CCCCC2)C(=O)/C1=C\c1cc(O)cc(O)c1` [Compound 58, 3-cyclohexyl-5-(3,5-dihydroxybenzylidene)-1-methyl-2-selenoxoimidazolidine-4-on] has an IC50 of 18 µM.
For `CCCCCCN1C(=O)/C(=C\c2cccc(O)c2O)N(C)C1=[Se]` [Compound 60, 5-(2,3-dihydroxybenzylidene)-3-hexyl-1-methyl-2-selenoxoimidazolidine-4-on], the IC50 was 6 µM.
Work on `CCCCCCN1C(=O)/C(=C\c2ccc(N(C)C)cc2)N(C)C1=[Se]` [Compound 61, 5-(4-(dimethylamino)benzylidene)-3-hexyl-1-methyl-2-selenoxoimidazolidine-4-on] yielded an IC50 of 33 µM.
For `CCCCCCN1C(=O)/C(=C\c2cc(O)cc(O)c2)N(C)C1=[Se]` [Compound 62, 5-(3,5-dihydroxybenzylidene)-3-hexyl-1-methyl-2-selenoxoimidazolidine-4-on], the IC50 was 5 µM.
With `CCCCCCN1C(=O)/C(=C\c2ccc(N3CCOCC3)cc2)N(C)C1=[Se]` [Compound 63, 3-hexyl-1-methyl-5-(4-morpholinobenzylidene)-2-selenoxoimidazolidine-4-on] the IC50 was 0.5 µM.
With `CCCCCCN1C(=O)/C(=C\c2ccc(NCCOCCF)cc2)N(C)C1=[Se]` [Compound 67, 5-(4-((2-(2-fluoroethoxy)ethyl)amino)benzylidene)-3-hexyl-1-methyl-2-selenoxoimidazolidine-4-on] the IC50 was 0.45 µM.
For `CN1C(=[Se])N(C2CCCC2)C(=O)/C1=C\c1ccc(O)cc1O` [Compound 68, 3-cyclopentyl-5-(2,4-dihydroxybenzylidene)-1-methyl-2-selenoxoimidazolidine-4-on], the IC50 was 3 µM.
In the case of `CN1C(=[Se])N(C2CCCC2)C(=O)/C1=C\c1cccc(O)c1O` [Compound 69, 3-cyclopentyl-5-(2,3-dihydroxybenzylidene)-1-methyl-2-selenoxoimidazolidine-4-on], the IC50 is reported as 14 µM.
